Test results published in PMC9171587, “Novel α-Amylase Inhibitor Hemi-Pyocyanin Produced by Microbial Conversion of Chitinous Discards” (Marine Drugs, 2022).

Molecular target: T1, Porcine pancreatic α-amylase (Sus scrofa, UniProt P00690)
T1 construct: gene AMY2
T1 sequence (P00690 16-511): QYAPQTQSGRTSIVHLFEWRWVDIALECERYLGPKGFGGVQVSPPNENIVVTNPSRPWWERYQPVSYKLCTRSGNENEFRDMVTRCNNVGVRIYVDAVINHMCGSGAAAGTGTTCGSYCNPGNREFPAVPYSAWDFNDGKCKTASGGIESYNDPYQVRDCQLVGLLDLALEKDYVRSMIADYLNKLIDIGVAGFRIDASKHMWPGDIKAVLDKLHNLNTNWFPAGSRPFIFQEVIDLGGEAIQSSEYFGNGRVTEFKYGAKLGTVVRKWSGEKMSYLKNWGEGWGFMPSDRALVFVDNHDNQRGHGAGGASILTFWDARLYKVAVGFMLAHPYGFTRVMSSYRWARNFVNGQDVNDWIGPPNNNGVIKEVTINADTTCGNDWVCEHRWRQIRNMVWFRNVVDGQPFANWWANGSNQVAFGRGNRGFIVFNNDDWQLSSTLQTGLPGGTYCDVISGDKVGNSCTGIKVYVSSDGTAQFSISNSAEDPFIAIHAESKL
Test: starch hydrolysis assay (Bernfeld, reducing sugar at OD540) with commercial enzyme type VI-B
Type: biochemical

## Oc1cccc2nc3ccccc3nc12 [SF-1, hemi-pyocyanin]
  IC50: 15.8 µM
